Results: patent US7056947B2, “Aza-peptide epoxides” (Georgia Tech Research Corp., priority 2002, dated 2006)

Tests used:
Type in all cases: biochemical
[1] = biological target: T1, schistosome legumain SmAE (Schistosoma mansoni asparaginyl endopeptidase) (Schistosoma mansoni, UniProt P09841, N192C, form not given); test: Schistosome legumain (SmAE) IC50 assay; details: read-out: Schistosome Legumain IC50; preincubated 20 minutes at room temperature, substrate Cbz-Ala-Ala-Asn-AMC; NI = no inhibition
T1 sequence (P09841 1-429 N192C): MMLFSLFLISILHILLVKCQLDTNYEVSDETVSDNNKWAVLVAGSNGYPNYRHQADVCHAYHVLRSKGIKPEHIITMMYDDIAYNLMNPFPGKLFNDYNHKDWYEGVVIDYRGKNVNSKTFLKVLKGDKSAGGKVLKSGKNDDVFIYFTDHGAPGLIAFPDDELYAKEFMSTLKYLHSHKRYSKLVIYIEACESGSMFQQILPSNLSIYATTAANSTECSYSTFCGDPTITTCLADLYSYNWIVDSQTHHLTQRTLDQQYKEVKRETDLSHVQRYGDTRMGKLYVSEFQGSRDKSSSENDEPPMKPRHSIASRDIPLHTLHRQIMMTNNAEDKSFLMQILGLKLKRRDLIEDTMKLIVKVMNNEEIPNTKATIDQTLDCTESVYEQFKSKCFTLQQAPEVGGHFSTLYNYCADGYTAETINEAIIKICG
Procedure: Studies with the aza-peptide epoxides using the schistosome legumain SmAE (Schistosoma mansoni asparaginyl endopeptidase) were also performed. The enzymatically pure enzyme (zymogen form) was expressed in Pichia without interference from other proteases (ref FEBS lett 2000 466 244–248 Caffrey). The actual active site enzyme concentration is unknown. The lyophilized enzyme (50–100 mg) was reconstituted in 1.5 mL 0.5 M sodium acetate, pH 4.5 containing 4 mM DTT, and left to stand at 37° C. for 3–4 hours to allow for auto-activation of the zymogen. In a black 96-well microtiter plate, 50 uL of activated enzyme was added to an equal volume of 0.1 M citrate-phosphate buffer pH 6.8 containing 4 mM DTT. Inhibitor stock solutions (20 mM) were prepared in DMSO. Serial dilutions (using water) of inhibitor were added (as 1 uL aliquots) to yield concentrations of between 2 and 0.00002 uM inhibitor. The inhibitors were preincubated with the protease at room temperature for 20 minutes before the assay (IC50s were the same when incubated for only 5 minutes). After incubating various inhibitor concentrations with enzyme, 100 uL of the same buffer containing 20 uM substrate (Cbz-Ala-Ala-Asn-AMC) was added to the wells and the reaction monitored at room temperature with linear kinetics up to 20 minutes. Inhibitors are tested in duplicate. A plot of the RFU/min versus the inhibitor concentration [μM] permitted calculation of an IC50 value and estimation of the kobs/[I].

papain = biological target: T2, papain (Carica papaya, UniProt P00784); test: Inhibition of papain, incubation method; details: second-order rate constant, NI = no inhibition; for kinact/KI: pH 7.5, read-out: kobs/[I] papain
T2 sequence (P00784 134-345): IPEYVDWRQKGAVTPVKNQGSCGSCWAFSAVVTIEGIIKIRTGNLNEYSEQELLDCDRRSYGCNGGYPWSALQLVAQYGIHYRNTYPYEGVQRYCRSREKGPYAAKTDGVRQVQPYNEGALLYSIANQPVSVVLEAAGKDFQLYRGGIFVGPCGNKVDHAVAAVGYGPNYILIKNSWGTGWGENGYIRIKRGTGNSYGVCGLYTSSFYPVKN
Summary of the method: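 Papain (~0.29 mg/mL) incubated with inhibitor in 50 mM Hepes pH 7.5, 2.5 mM DTT, 2.5 mM EDTA; residual activity read on Z-Phe-Arg-pNA (53.7 μM) by p-nitroanilide release at 405 nm. Pseudo-first-order inactivation constants from ln vt/vo versus time.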

cathepsin B = cathepsin B (Homo sapiens, UniProt P07858); test: Inhibition of cathepsin B, incubation method; details: second-order rate constant, NI = no inhibition; for kinact/KI: pH 6, read-out: kobs/[I] cathepsin B
Text: The release of 7-amino-4-methylcoumarin was monitored (λex=360 nm, λem=465 nm) using a Tecan Spectra Fluor microplate reader. Pseudo first-order inactivation rate constants were obtained from plots of In vt/vo versus time.

[2] = biological target: dipeptidyl peptidase I (DPPI, cathepsin C) (Homo sapiens, UniProt P53634); test: Inhibition of DPPI
Chain of dipeptidyl peptidase I (DPPI, cathepsin C) (P53634 25-463, species assumed): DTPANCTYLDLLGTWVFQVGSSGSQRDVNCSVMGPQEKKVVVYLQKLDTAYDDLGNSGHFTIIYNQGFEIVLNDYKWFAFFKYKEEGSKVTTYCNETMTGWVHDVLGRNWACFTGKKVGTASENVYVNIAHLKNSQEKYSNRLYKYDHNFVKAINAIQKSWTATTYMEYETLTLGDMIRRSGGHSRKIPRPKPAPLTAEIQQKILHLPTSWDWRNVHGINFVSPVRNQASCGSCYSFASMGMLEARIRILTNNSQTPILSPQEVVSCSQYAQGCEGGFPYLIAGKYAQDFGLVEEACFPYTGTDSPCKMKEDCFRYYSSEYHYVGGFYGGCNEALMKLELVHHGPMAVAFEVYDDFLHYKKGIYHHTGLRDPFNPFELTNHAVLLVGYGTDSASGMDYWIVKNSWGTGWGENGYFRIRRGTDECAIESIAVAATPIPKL

human cathepsin D = human cathepsin D (Homo sapiens, UniProt P07339); test: Aspartyl protease assay, cathepsin D; details: preincubated 20 minutes, pH 3.5
Chain of human cathepsin D (P07339 65-412): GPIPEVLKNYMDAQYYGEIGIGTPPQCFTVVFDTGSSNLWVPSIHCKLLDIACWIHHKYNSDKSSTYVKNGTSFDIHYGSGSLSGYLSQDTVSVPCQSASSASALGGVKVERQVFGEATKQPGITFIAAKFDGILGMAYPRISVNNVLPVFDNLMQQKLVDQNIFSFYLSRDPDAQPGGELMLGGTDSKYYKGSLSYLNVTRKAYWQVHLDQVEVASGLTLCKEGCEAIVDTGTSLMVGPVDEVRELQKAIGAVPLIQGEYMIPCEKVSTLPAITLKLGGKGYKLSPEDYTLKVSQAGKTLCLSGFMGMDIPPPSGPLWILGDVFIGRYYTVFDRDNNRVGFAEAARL
Procedure: (§1) Aspartyl Proteases. Assays with the following aspartyl proteases were performed: porcine pepsin, human cathepsin D, plasmepsin 2 (from P. falciparum), and the secreted aspartic proteinase 2 (SAP-2) from Candida albicans. The inhibitors were also assayed with HIV-1 protease. The inhibitors were preincubated for 30 minutes with HIV-1 protease and 20 minutes with the other enzymes. Substrate was then added and the substrate hydrolysis was monitored.

porcine pepsin = porcine pepsin (Sus scrofa, UniProt P00791); test: Aspartyl protease assay, pepsin; details: preincubated 20 minutes, pH 3.5
Chain of porcine pepsin (P00791 60-385): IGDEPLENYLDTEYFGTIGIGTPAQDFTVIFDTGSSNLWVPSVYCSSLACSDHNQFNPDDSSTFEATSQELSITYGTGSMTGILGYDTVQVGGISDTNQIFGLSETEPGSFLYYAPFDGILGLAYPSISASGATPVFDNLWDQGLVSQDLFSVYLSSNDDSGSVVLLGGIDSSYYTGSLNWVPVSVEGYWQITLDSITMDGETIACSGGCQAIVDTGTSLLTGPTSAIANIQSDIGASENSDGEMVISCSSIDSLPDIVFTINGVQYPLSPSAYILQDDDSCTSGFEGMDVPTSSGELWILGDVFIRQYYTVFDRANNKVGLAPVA
Procedure: as §1

HIV-1 protease = HIV-1 protease (Human immunodeficiency virus type 1 group M subtype B, UniProt P04585); test: Aspartyl protease assay, HIV-1 protease; details: preincubated 30 minutes
Procedure: as §1

plasmepsin 2 = plasmepsin 2 (Plasmodium falciparum, UniProt P46925); test: Aspartyl protease assay, plasmepsin 2; details: preincubated 20 minutes, pH 4.5
Chain of plasmepsin 2 (P46925 125-453): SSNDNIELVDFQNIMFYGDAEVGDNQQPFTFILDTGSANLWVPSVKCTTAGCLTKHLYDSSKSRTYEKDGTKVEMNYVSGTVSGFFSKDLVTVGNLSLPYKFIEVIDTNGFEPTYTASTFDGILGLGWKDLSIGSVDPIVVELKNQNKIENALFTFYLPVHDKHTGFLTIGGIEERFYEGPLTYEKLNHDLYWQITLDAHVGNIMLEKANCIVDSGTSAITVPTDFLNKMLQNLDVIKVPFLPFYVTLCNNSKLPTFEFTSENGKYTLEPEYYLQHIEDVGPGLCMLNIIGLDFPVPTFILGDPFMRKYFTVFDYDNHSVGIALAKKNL
Procedure: as §1

granzyme B = granzyme B (Homo sapiens, UniProt P10144); test: Granzyme B assay; details: preliminary assays, inhibitor 5 mM stock incubated 1 hour, substrate IETD-pNA
Chain of granzyme B (P10144 21-247, species assumed): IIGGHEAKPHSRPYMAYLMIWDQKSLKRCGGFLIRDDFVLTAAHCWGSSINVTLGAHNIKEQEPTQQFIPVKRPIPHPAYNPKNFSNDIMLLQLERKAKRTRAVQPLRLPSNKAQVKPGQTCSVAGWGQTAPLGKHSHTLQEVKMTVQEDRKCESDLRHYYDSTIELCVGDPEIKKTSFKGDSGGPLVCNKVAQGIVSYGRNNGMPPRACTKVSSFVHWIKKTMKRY
Procedure: Granzyme B. Assays with granzyme B were also performed. In the preliminary assays, the inhibitor (10 μL, 5 mM stock solution in DMSO) was incubated with granzyme B (90 μL) for 1 hour. After the incubation period, to these wells was added IETD-pNA (100 μL) and the rate was monitored at 405 nm.

[3] = biological target: secreted aspartic proteinase 2 (SAP-2) (Candida albicans, UniProt P0DJ06); test: Aspartyl protease assay, SAP-2; details: preincubated 20 minutes, pH 4.5
Chain of secreted aspartic proteinase 2 (SAP-2) (P0DJ06 57-398): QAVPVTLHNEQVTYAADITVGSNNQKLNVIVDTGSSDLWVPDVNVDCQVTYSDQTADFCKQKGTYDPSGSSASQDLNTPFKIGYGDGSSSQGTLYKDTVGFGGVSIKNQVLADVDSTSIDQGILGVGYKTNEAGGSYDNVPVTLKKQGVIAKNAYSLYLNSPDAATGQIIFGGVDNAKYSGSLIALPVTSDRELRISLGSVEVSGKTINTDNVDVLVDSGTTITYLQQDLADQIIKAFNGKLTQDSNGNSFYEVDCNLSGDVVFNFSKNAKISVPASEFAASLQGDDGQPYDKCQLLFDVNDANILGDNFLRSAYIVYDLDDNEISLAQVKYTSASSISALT
Procedure: as §1

CC(NC(=O)OCc1ccccc1)C(=O)NC(C)C(=O)NN(CC(N)=O)C(=O)C1OC1C(=O)NCCc1ccccc1 [12e, (2S,3S)-2-(2-Phenethylcarbamoyl)-3-(N^2-(N -benzyloxycarbonylalanylalanyl)-N^1-carbamoylmethylhydrazinocarbonyl)oxirane]
IC50 [1]: > 2 µM

trans-3-(N-(N-tert-Butoxycarbonylnorvalyl)-N^1-phenylethylhydrazinocarbonyl)oxirane-2-carboxylic Acid Ethyl Ester [Boc-Nva-AHph-trans-EP-COOEt]
kobs/[I] papain (papain): 1.4 M⁻¹ s⁻¹ | kobs/[I] cathepsin B (cathepsin B): 2.7 M⁻¹ s⁻¹ | kobs/[I] DPPI [2]: 0.5 M⁻¹ s⁻¹

CCOC(=O)[C@H]1O[C@@H]1C(=O)N(CC(N)=O)NC(=O)[C@H](C)NC(=O)[C@H](C)NC(=O)OCc1ccccc1 [Cbz-Ala-Ala-AAsn-(2S, 3S)-EP-COOEt, (2S,3S)-3-(N^2-(N-Benzyloxycarbonylalanylalanyl)-N^1-carbamoylmethylhydrazinocarbonyl)oxirane-2-carboxylic Acid Ethyl Ester]
inhibition of human cathepsin D (human cathepsin D): less than 20% | inhibition of porcine pepsin (porcine pepsin): less than 20% | inhibition of HIV-1 protease (HIV-1 protease): less than 20% | inhibition of plasmepsin 2 (plasmepsin 2): less than 20% | kinact/KI (papain): 4 M⁻¹ s⁻¹ | kinact/KI (cathepsin B): 6 M⁻¹ s⁻¹ | inhibition of granzyme B (granzyme B): no inhibition | inhibition of SAP-2 [3]: less than 20%

CC(NC(=O)[C@@H]1O[C@H]1C(=O)N(CC(N)=O)NC(=O)[C@H](C)NC(=O)[C@H](C)NC(=O)OCc1ccccc1)C(=O)NCc1ccccc1 (stereo partly drawn) [12f, (2R,3R)-2-(1-Benzylcarbamoylethylcarbamoyl)-3-(N^2-(N-benzyloxycarbonylalanylalanyl)-N^1-carbamoylmethylhydrazinocarbonyl)oxirane]
IC50 [1]: > 2 µM

CCCC[C@H](NC(=O)OC(C)(C)C)C(=O)NN(CCc1ccccc1)C(=O)[C@@H]1O[C@H]1C(=O)OCC (relative stereo) [Boc-Nle-AHph-trans-EP-COOEt, trans-3-(N^2-(N-tert-Butoxycarbonylnorleucyl)-N^1-phenylethylhydrazinocarbonyl)oxirane-2-carboxylic Acid Ethyl Ester]
kinact/KI (papain): 1.6 M⁻¹ s⁻¹ | kinact/KI (cathepsin B): 1.3 M⁻¹ s⁻¹ | kinact/KI ([2]; read-out: kobs/[I] DPPI): 0.7 M⁻¹ s⁻¹

trans-3-(N^2-Norvalyl)-N^1-phenylethylhydrazinocarbonyl)-1-(2-phenylethyl)oxirane Trifluoroacetate Salt [Nva-AHph-trans-EP-CH2CH2Ph.TFA]
kobs/[I] DPPI [2]: 0.1 M⁻¹ s⁻¹

CC(NC(=O)OCc1ccccc1)C(=O)NC(C)C(=O)NN(CC(N)=O)C(=O)C1OC1C(=O)NCc1ccccc1 [12d, (2S,3S)-2-(2-Benzylcarbamoyl)-3-(N^2-(N-benzyloxycarbonylalanylalanyl)-N^1-carbamoylmethylhydrazinocarbonyl)oxirane]
IC50 [1]: > 2 µM
